Assay results published in article PMC6812009, “Covalent Aurora A regulation by the metabolic integrator coenzyme A” (Redox Biology, 2019).

Key:
mouse oocytes = test: Microinjection of mouse oocytes, spindle formation and chromosome alignment; format: cell-based; settings: 17 h after GV release; for Disruption of bipolar spindle formation and chromosome alignment: injected with 3 mM compound
Experimental: Mouse oocytes arrested at the GV stage were injected with different concentrations of CoA (0.15–5 mM). Since the commercial preparation of CoA used for microinjection contained 3 mol of lithium ions per mole of CoA, control oocytes were injected with an equivalent amount of LiCl. In a separate study, oocytes were injected with 3 mM CoA, ADP, AMP, 3′-5′-ADP and pantetheine. To examine the effect of injected compounds on spindle formation, oocytes were fixed 17 h after GV release and stained for alpha-tubulin (green) and DNA (blue).

IKKβ = target: T1, IKKβ (Homo sapiens, UniProt O14920); test: Kinase profiling screen (radioactive filter-binding assay); format: biochemical; settings: 100 μM compound, 5 μM ATP; read-out: Kinase activity, % of activity in the absence of inhibitor
T1 sequence (O14920 1-756): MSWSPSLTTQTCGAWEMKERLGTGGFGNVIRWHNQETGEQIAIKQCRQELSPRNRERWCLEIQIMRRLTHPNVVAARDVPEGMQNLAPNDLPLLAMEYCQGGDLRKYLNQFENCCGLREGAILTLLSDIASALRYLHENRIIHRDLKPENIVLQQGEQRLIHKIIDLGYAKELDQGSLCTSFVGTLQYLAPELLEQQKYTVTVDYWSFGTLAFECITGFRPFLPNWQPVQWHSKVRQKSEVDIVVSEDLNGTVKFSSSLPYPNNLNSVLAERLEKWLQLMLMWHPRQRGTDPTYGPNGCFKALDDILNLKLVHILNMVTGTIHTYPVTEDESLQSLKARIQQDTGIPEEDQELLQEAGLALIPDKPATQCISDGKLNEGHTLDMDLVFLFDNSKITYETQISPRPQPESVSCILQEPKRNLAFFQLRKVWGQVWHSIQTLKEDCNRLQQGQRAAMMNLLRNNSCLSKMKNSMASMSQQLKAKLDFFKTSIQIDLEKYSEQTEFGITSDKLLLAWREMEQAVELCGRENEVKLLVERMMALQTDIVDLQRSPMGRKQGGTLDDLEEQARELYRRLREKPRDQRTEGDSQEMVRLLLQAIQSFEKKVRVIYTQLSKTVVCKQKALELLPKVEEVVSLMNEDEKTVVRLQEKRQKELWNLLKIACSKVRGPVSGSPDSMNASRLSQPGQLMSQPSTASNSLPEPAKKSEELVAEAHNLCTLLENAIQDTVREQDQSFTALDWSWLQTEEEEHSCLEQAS
Method in brief: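 Residual kinase activity is read in duplicate wells containing 100 μM final test compound (CoA, dpCoA or ADP). Recombinant kinases use model substrates at ATP levels optimal for each enzyme, across a 117-kinase screen.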

[1] = target: T2, Cys290Ala Aurora A mutant (Homo sapiens, UniProt O14965, C290A); test: In vitro CoAlation assay; format: binding
T2 construct: For enzyme and DSF assays, full-length human Aurora A and Aurora B and 1–43 TPX2 were produced; made in house; host or cells: E. coli BL21 (DE3) pLysS
T2 sequence (O14965 whole entry C290A): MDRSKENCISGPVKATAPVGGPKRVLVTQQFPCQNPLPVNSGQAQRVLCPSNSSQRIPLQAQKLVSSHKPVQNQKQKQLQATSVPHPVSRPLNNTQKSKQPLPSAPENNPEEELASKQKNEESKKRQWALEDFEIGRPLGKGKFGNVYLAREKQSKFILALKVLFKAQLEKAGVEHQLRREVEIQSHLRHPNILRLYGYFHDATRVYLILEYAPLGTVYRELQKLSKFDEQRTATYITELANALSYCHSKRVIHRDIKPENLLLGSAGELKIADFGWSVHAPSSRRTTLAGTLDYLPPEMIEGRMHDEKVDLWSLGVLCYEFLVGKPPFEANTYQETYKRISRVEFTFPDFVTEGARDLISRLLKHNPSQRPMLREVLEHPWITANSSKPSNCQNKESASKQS
Experimental: (§1) For CoAlation assays, 0.5 μg of purified recombinant preparations of wild type and mutant forms of His-Aurora A (Cys290Ala; Cys393Ala, Cys290/393Ala, Thr217Glu) and His-Aurora B (Glu161Thr) were incubated with a mixture of oxidised and reduced forms of CoA (CoASH and CoASSCoA, 1 mM final) in 20 mM Tris-HCl, pH 7.5 for 30 min at RT. The reaction was stopped by adding SDS gel-loading buffer without DTT, but containing 10 mM NEM. To examine whether binding of the 3′-phosphate ADP moiety of CoA to the Aurora A ATP binding-pocket co-ordinates the pantetheine thiol for disulfide bond formation with Cys 290, the in vitro CoAlation assay was carried out with 100 μM CoA and increasing concentrations of ATP (0–10 mM).

[2] = target: T3, Thr217Glu mutant of Aurora A (Homo sapiens, UniProt O14965, T217E); test: In vitro CoAlation assay; format: binding
T3 construct: For enzyme and DSF assays, full-length human Aurora A and Aurora B and 1–43 TPX2 were produced; made in house; host or cells: E. coli
T3 sequence (O14965 whole entry T217E): as the sequence (O14965 whole entry C290A) above, with T217E, A290C counted along it
Experimental: as §1

[3] = target: T4, Cys290/393Ala Aurora A mutant (Homo sapiens, UniProt O14965, C290A/C393A); test: In vitro CoAlation assay; format: binding
T4 construct: made in house
T4 sequence (O14965 whole entry C290A/C393A): as the sequence (O14965 whole entry C290A) above, with C393A counted along it
Experimental: as §1

wild-type Aurora A = target: T5, wild-type Aurora A (Homo sapiens, UniProt O14965); test: In vitro CoAlation assay; format: binding
T5 construct: For enzyme and DSF assays, full-length human Aurora A and Aurora B and 1–43 TPX2 were produced; made in house; host or cells: E. coli
T5 sequence (O14965 whole entry): as the sequence (O14965 whole entry C290A) above, with A290C counted along it
Experimental: as §1

Aurora B mutant = target: T6, Aurora B mutant (Homo sapiens, UniProt Q96GD4, E161T); test: In vitro CoAlation assay; format: binding
T6 construct: For enzyme and DSF assays, full-length human Aurora A and Aurora B and 1–43 TPX2 were produced; made in house; host or cells: E. coli BL21 (DE3) pLysS
T6 sequence (Q96GD4 whole entry E161T): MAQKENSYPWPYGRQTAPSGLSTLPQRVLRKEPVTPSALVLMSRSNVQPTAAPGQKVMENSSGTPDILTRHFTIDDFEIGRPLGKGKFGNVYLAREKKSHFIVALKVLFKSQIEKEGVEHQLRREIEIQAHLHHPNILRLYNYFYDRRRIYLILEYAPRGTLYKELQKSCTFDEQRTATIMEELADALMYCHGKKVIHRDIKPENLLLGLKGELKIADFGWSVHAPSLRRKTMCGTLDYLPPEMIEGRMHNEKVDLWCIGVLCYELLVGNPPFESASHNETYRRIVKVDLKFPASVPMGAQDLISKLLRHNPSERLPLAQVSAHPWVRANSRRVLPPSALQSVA
Experimental: as §1

Aurora B = Aurora B (Homo sapiens, UniProt Q96GD4); test: In vitro CoAlation assay; format: binding; settings: optimal Aurora A assay conditions
Chain of Aurora B (Q96GD4 whole entry): as the sequence (Q96GD4 whole entry E161T) above, with T161E counted along it
Experimental: as §1

VEGFR = test: Kinase profiling screen (radioactive filter-binding assay); format: biochemical, human; settings: 100 μM compound, 20 μM ATP
Experimental: Profiling of 117 protein kinases with CoA, dpCoA and ADP was carried out at the International Centre for Protein Kinase Profiling at the University of Dundee. Each compound was tested in vitro, in duplicate, at 100 μM final concentration using recombinant kinases, model substrates and optimal concentrations of ATP. Bacterially expressed full-length His-Aurora A was used to determine the IC50 value for CoA (in the presence or absence of DTT), dpCoA, ADP and desulfo-CoA. The assay was performed in the presence of 5 μM competing ATP. To examine whether the inhibitory effect of CoA on Aurora A is modulated by TPX2, IC50 values for CoA were also generated in the presence and absence of 1 μg TPX2 (residues 1–43) fragment.

SMILES | Disruption of bipolar spindle formation and chromosome alignment (mouse oocytes) | activity at 100 µM (IKKβ) [%] | Reduction of covalent modification by CoA in comparison to wild-type Aurora A [1] [%] | CoA binding compared to the wild-type kinase [2] | Covalent modification (binding) by CoA [3] | In vitro CoAlation of Aurora A (wild-type Aurora A) | CoA binding (in vitro CoAlation) (Aurora B mutant) | In vitro CoAlation of Aurora B (Aurora B) | Number of oocytes with atypical spindles and misaligned chromosomes (mouse oocytes; microinjection of 0.15–5 mM CoA, dose-dependent) | Kinase activity, % of activity in the absence of inhibitor (VEGFR) [%]
Nc1ncnc2c1ncn2C1OC(COP(=O)(O)OP(=O)(O)O)C(O)C1O (stereo not shown) [ADP] | not | 26.6 |  |  |  |  |  |  |  | 
CC(C)(COP(=O)(O)OP(=O)(O)OC[C@H]1O[C@@H](n2cnc3c(N)ncnc32)[C@H](O)[C@@H]1OP(=O)(O)O)[C@@H](O)C(=O)NCCC(=O)NCCS [CoA, Coenzyme A] | disrupted both bipolar spindle formation and chromosome alignment | 90.5 | > 95 | significantly reduced CoA binding | no binding was detected | strong CoAlation | strong binding | CoAlated at an extremely low level | markedly increased | 81.0
CC(C)(COP(=O)(O)OP(=O)(O)OCC1OC(n2cnc3c(N)ncnc32)C(O)C1O)C(O)C(=O)NCCC(=O)NCCS (stereo not shown) [dpCoA, dephospho-CoA] |  | 48 |  |  |  |  |  |  |  | 
